From patent EP0605261B1, “Use of a flavone derivative as taste modifier and a method of modifying taste” (SAN-EI GEN F.F.I., INC., priority 1992, dated 1994) come the findings set out here.

What all share (format): in vivo
The nature of assay [1]: Sensory test: refreshness, its continuity and quality of taste (hard candy). As to conditions: 0.1 (w/w)% flavor composition D (0.0001 (g) Compound 1) vs C, 8 panellers. The protocol:
Compound 1 of the flavone derivative (I) was used as a taste modifier. Hard candy containing the above flavor composition C (control) or D (containing the flavone derivative (I)) was prepared.
First, 60 g of sugar, 40 g of thin malt syrup and 20 g of water were mixed and heated up to about 150°C to boil down, and then allowed to cool to about 120 °C while stirring. Next, the above flavor composition C was added thereto such that 0.1 (w/w)% of the flavor composition was contained and it is poured into a box, thereby preparing flavone derivative (I) free hard candy.
Alternatively, the flavor composition D was used in stead of the flavor composition C to prepare flavone derivative (I)-containing hard candy in accordance with the same method.
Sensory tests for obtained hard candy were carried out by 8 panellers comprised of 6 males and 2 females at the age from 20 to 40.

Assay [2] can be described thus: Sensory test: body and deliciousness (soft candy). To be noted: 0.00001 (g) Compound 1, 8 panellers. On the procedure: Compound 1 of the flavone derivative (I) was used as a taste modifier. Gelatin which was swelled in advance with a part of water, followed by heating to dissolve, granulated sugar, thick malt syrup and the remaining water was mixed, followed by boiling down to 130°C. Then, fondant paste, vegetable oils and fats, emulsifier, colorant and the flavone derivative (I) were added thereto, thereby preparing flavone derivative (I)-containing soft candy. Alternatively, flavone derivative (I) free soft candy was prepared as a control by the same method.
Sensory tests for obtained soft candy were conducted by 8 panellers comprised of 6 males and 2 females at the age from 20 to 40.

Assay [3] is described as follows: Sensory test (limiting method): enhancing the sourness of acid sugar solution. Also noted: key: (equivalent citric acid content / citric acid content with flavone) × 100. As to conditions: citric acid 1.000 (g), flavone derivative (I) 0.00001 (g), 8 panellers; for Value of enhancing the sourness Ascending system: ascending system (from low concentration); for Value of enhancing the sourness Descending system: descending system (from high concentration). The protocol: Compounds 1 to 11 of the flavone derivative (I) were used as a taste modifier to prepare acid sugar solution having compositions as follows:
As a control, 21 types of acid sugar solutions are used. In the control, the flavone derivative (I) is removed from the above composition and the content of citric acid is varied from 1.000 g to 1.500 g by 0.025 g.
Sensory tests were carried out by 8 trained panellers in accordance with a limiting method described in the Hand Book of Sensory evaluation, edited by Research Committee of sensory evaluation, Union of Japanese Scientists and Engineers, p.398 (1973) in use of acid sugar solutions containing respective flavone derivatives (I) and another acid sugar solutions having a various content of citric acid.
As for the content of citric acid, two types sensory tests were conducted, one was an ascending system (testing from solution with low concentration) and another was a descending system (testing from solution with high concentration).
The sensory evaluation was made by a value of enhancing the sourness. The value of enhancing the sourness was calculated by the following formula based on the content of citric acid in acid sugar solutions with varied concentration of citric acid, which has an equivalent stimulation with an acid sugar solution containing the flavone derivative (I) Value of enhancing the sourness = (content of citric acid in acid sugar solution sensed as an equivalent stimulation/content of citric acid in acid sugar solution containing the flavone derivative (I)) x 100 [formula]

The nature of assay [4]: Five points evaluation test: saltiness and savor modifying effect (salted squid). Also on record: key: five-point scale; untreated standard scored 2. As to conditions: average points of 5 panellers (2: no changes). On the procedure: Compound 5 of the flavone derivative (I) was used as a taste modifier. To commercially available salted squids, 1, 0.1 and 0.01 ppm of the flavone derivative (I) was added respectively to prepare samples. Sensory tests were carried out for the saltiness and the savor of salted squid. Flavone derivative (I) free salted squids were used as standards.
(§1) The sensory tests were conducted by 5 trained panellers to examine saltiness modifying effect (so called saltiness adapting effect) and savor modifying effect.
(§2) Each sample solution was evaluated assuming that the standard solution has the point of 2.

A short description of assay [5]: Five points evaluation test: saltiness and brackish taste modifying effect (soy sauce with low salt concentration). To be noted: average points of 5 panellers (2: no changes). Also on record: key: five-point scale; additive-free standard solution scored 2. On the procedure: Compound 5 of the flavone derivative (I) was used as a taste modifier. To commercially available soy sauce with low salt concentration (salt concentration: 7 w/w%), 1, 0.1 and 0.01 ppm of the flavone derivative (I) was added respectively to prepare sample solutions. Sensory tests were carried out for the respective concentrations of sample solutions and 1/2 diluted solutions thereof. Flavone derivative (I) free solutions were used as standard solutions.
The sensory tests were conducted by 5 trained panellers to examine saltiness modifying effect (so called saltiness adapting effect) and brackish taste modifying effect.
as §2

A short description of assay [6]: Sensory test: body and deliciousness (bread). To be noted: 0.00002 (g) Compound 5, 8 panellers. The protocol:
Compound 5 of the flavone derivative (I) was used as a taste modifier. Strong flour, yeast food, bread yeast and water were mixed and fermented for four hours at 28°C. Dough materials comprising strong flour, sugar, powdered skim milk, shortening and water, and the flavone derivative (I) were added thereto and subjected to dough process, followed by baking for 25 minutes at 220°C, thereby preparing bread. Flavone derivative (I) free bread was prepared in the same manner as a control.
Sensory tests for obtained bread were conducted by 8 panellers comprised of 6 males and 2 females at the age from 20 to 40.

The nature of assay [7]: Five points evaluation test: saltiness and savor modifying effect (ham made of pork loin). As to conditions: Ham made of pork loint, average points of 5 panellers (2: no changes). On the procedure:
Compound 6 of the flavone derivative (I) were used as a taste modifier. Ham made of pork loin was prepared by a general method, in use of pickle solutions containing the flavone derivative (I) in the amount of 1, 0.1 and 0.01 ppm and flavone derivative (I) free standard pickle solution, respectively. Sensory tests were carried out for modifying effects of the saltiness and the savor.
as §1, §2
The pickle solution containing the above was prepared and cooled for a night. Then, raw meat (native pork) was molded and the pickle solution was injected at a rate of 120% to the molded meat. After injection, the molded meat was tumbled with tumbler (12 R. P. M./60 minutes) and salted for a night. It was packed in a container and subjected to dry at 60°C for 60 minutes, smoke at 70°C for 40 minutes and steam at 78°C (the temperature of the center raised to 70°C) to finish the processing. The processed meat was cooled for a night and evaluated.

Assay [8] is described as follows: Sensory test: refreshness, its continuity and quality of taste (mouth refreshing agent). As to conditions: 0.1 (w/w)% flavor composition F (0.00005 (g) Compound 9) vs E, 8 panellers. The protocol: Compound 9 of the flavone derivative (I) was used as a taste modifier. Mouth refreshing agent comprising the above flavor composition E (control) or F (containing the flavone derivative (I)) was prepared.
First, 30 g of ethanol, 10 g of glycerin, 2 g of polyoxyethylene hardened castor oil, 0.1 g of sodium saccharin, 0.005 g of chlorhexidine and 58 g of water were mixed, and the above flavor composition E was added thereto such that 0.1 (w/w)% of the flavor compositon was contained, thereby preparing flavone derivative (I) free mouth refreshing agent. Alternatively, the flavor composition F was used in stead of the flavor composition E to prepare flavone derivative (I)-containing mouth refreshing agent.
Sensory tests for obtained mouth refreshing agents were carried out by 8 panellers comprised of 6 males and 2 females at the age from 20 to 40.

Setting [9] is: 0.01 ppm, Soy sauce 1/2 dilution.
Where [10] appears, read: 0.01 ppm, Soy sauce Undiluted solution.
Where [11] appears, read: 0.10 ppm, Soy sauce 1/2 dilution.
The mark [12] stands for this setting: 0.10 ppm, Soy sauce Undiluted solution.
[13] abbreviates: 1.00 ppm, Soy sauce 1/2 dilution.
Where [14] appears, read: 1.00 ppm, Soy sauce Undiluted solution.

SMILES strings stand for the structures.

Consider `COc1ccc(-c2cc(=O)c3c(OC)c(OC)c(OC)cc3o2)cc1OC` [Compound 1, 3',4',5,6,7-pentamethoxyflavone], for which, in assay [1], the “Continuity of the refreshness: Those who sensed D additive is better” value is given as 8 number of people, the “Continuity of the refreshness: Those who sensed no difference” value is listed as 0 number of people, the “Quality of taste: Those who sensed D additive is better” value was 6 number of people and the “Quality of taste: Those who sensed no difference” value is listed as 2 number of people. Further, in assay [1], the “Refreshness: Those who sensed D additive is better” value is on record as 7 number of people and the “Refreshness: Those who sensed no difference” value is 1 number of people. Further, in assay [2], the “Body: Those who sensed no difference” value is listed as 1 number of people, the “Body: Those who sensed the flavone derivative (I) additive is better” value is recorded as 7 number of people, the “Deliciousness: Those who sensed no difference” value is listed as 0 number of people and the “Deliciousness: Those who sensed the flavone derivative (I) additive is better” value is recorded as 8 number of people. In assay [2], the “Quality of taste: Those who sensed no difference” value is 0 number of people and the “Quality of taste: Those who sensed the flavone derivative (I) additive is better” value was 8 number of people. Also, in assay [3], the “Value of enhancing the sourness Ascending system” value is reported as 119 and the “Value of enhancing the sourness Descending system” value worked out at 121.

Turning to `COc1cc(OC)c2c(=O)cc(-c3ccc(OC)c(OC)c3)oc2c1` [Compound 5, 3',4',5,7-tetramethoxyflavone], in assay [4] (0.01 ppm), the “Saltiness and Savor Modifying Effect: Saltiness” value came out at 3.0; the “Saltiness and Savor Modifying Effect: Savor” value is 3.6; the “Saltiness and Savor Modifying Effect: Total evaluation” value turned out to be 3.4. Also, in assay [4] (0.10 ppm), the “Saltiness and Savor Modifying Effect: Saltiness” value was found to be 3.4; the “Saltiness and Savor Modifying Effect: Savor” value came out at 3.8; the “Saltiness and Savor Modifying Effect: Total evaluation” value is recorded as 3.6. Moreover, in assay [4] (1.00 ppm), the “Saltiness and Savor Modifying Effect: Saltiness” value turned out to be 3.8; the “Saltiness and Savor Modifying Effect: Savor” value is recorded as 4.0; the “Saltiness and Savor Modifying Effect: Total evaluation” value was determined as 3.8. Moreover, in assay [5] (setting [9]), the “Brackish Taste Modifying Effect” value is reported as 3.6 and the “Saltiness Modifying Effect” value is listed as 3.8. Further, in assay [5] (setting [10]), the “Brackish Taste Modifying Effect” value is listed as 3.4 and the “Saltiness Modifying Effect” value came to 3.6. Besides, in assay [5] (setting [11]), the “Brackish Taste Modifying Effect” value is listed as 4.0 and the “Saltiness Modifying Effect” value was 4.0. For the same compound, in assay [5] (setting [12]), the “Brackish Taste Modifying Effect” value is 3.4 and the “Saltiness Modifying Effect” value came to 3.6. Further, in assay [5] (setting [13]), the “Brackish Taste Modifying Effect” value stood at 4.0 and the “Saltiness Modifying Effect” value came to 4.4. Besides, in assay [5] (setting [14]), the “Brackish Taste Modifying Effect” value was 4.0 and the “Saltiness Modifying Effect” value is 4.0. In addition, in assay [6], the “Body: Those who sensed no difference” value is recorded as 1 number of people, the “Body: Those who sensed the flavone derivative (I) additive is better” value is on record as 7 number of people, the “Deliciousness: Those who sensed no difference” value is 2 number of people and the “Deliciousness: Those who sensed the flavone derivative (I) additive is better” value is 6 number of people. Moreover, in assay [6], the “Quality of taste: Those who sensed no difference” value is 1 number of people and the “Quality of taste: Those who sensed the flavone derivative (I) additive is better” value is 7 number of people. Besides, in assay [3], the “Value of enhancing the sourness Ascending system” value was found to be 118 and the “Value of enhancing the sourness Descending system” value was determined as 121.

For the compound `COc1ccc(-c2cc(=O)c3c(OC)cc(OC)c(OC)c3o2)cc1` [Compound 6, 5,7,8,4'-tetramethoxyflavone], in assay [7] (0.10 ppm in pickle solution), the “Saltiness and Savor Modifying Effect: Saltiness” value is listed as 3.0; the “Saltiness and Savor Modifying Effect: Savor” value is recorded as 3.0; the “Saltiness and Savor Modifying Effect: Total evaluation” value is on record as 3.0. Moreover, in assay [7] (1.00 ppm in pickle solution), the “Saltiness and Savor Modifying Effect: Saltiness” value stood at 3.4; the “Saltiness and Savor Modifying Effect: Savor” value is 3.4; the “Saltiness and Savor Modifying Effect: Total evaluation” value amounted to 3.4. Also, in assay [3], the “Value of enhancing the sourness Ascending system” value turned out to be 120 and the “Value of enhancing the sourness Descending system” value is 123.

With `COc1ccc(-c2cc(=O)c3c(O)c(OC)c(OC)c(OC)c3o2)cc1` [Compound 9, 5-hydroxy-4',6,7,8-tetramethoxyflavone], in assay [8], the “Continuity of refreshness: Those who sensed F additive is better” value is recorded as 8 number of people, the “Continuity of refreshness: Those who sensed no difference” value is 0 number of people, the “Quality of taste: Those who sensed F additive is better” value is given as 6 number of people and the “Quality of taste: Those who sensed no difference” value is 2 number of people. Moreover, in assay [8], the “Refreshness: Those who sensed F additive is better” value is reported as 7 number of people and the “Refreshness: Those who sensed no difference” value is 1 number of people. Besides, in assay [3], the “Value of enhancing the sourness Ascending system” value is on record as 117 and the “Value of enhancing the sourness Descending system” value came out at 119.
